Laboratory results published in US6664058B2, “Base analogues” (Amersham Biosciences UK Limited, priority 2000, dated 2003).

Test system: exonuclease free Klenow fragment DNA polymerase I (EFK)
Conditions: 40 μM test compound alone or with 4 μM dNTPαS; 33P 15 mer primer / 24 mer template; one unit EFK; 37° C., 3 minutes
Experimental: Primer Extension Assays to Study the Incorporation of Triphosphate 5 by DNA Polymerases
A primer extension assay was used to evaluate the triphosphate 5 as a substrate for exonuclease free Klenow fragment DNA polymerase I (EFK). The assay used a ^33P 5′ end labelled 15 mer primer hybridised to a 24 mer template. The sequences of the primer and template are:
One picomole ^33P labelled primer was hybridised to 2 picomoles of template in ×2 Klenow buffer (100 mM Tris-HCl pH 7.5, 10 mM MgCl2., 10 mM 2-mercaptoethanol) To this was added either 4 μM dNTPαS or 40 μM (test compound 5c) or a mixture of 4 μM dNTPαS and 40 μM (test compound). One unit EFK and 20 mU inorganic pyrophosphatase were used per reaction. Primer alone, primer plus template plus enzyme controls were also carried out. The reactions were incubated at 37° C. for 3 minutes. Reactions were then stopped by the addition of formamide/EDTA stop solution. Reaction products were separated on a 20% polyacrylamide 7M urea gel and the product fragments sized by comparison with the labelled primer and the products of extensions in the presence of 4 μM dNTPαS after exposure to Kodak Biomax autoradiography film.

## Cc1cc2c(nn1)NC(=O)N([C@H]1C[C@H](O)[C@@H](COP(=O)(O)OP(=O)(O)OP(=O)(O)O)O1)C2 [compound 5, 6-(β-D-2-Deoxyribofuranosyl)-5-hydro-3-methyl-8H-pyrimido[4,5-c][1,2]pyridazin-7-one-5′-triphosphate]
  natural nucleotide in place of which the test compound is incorporated: incorporated in place of dTTP
